{
  "source": "ChEMBL document CHEMBL1201862",
  "about": "“PubChem BioAssay data set” (2004)",
  "test_in_all_cases": "NCI tumour cell line growth inhibition, 48 h",
  "key": {"786-0": {"test_system": "786-0"}, "A498": {"test_system": "A498"}, "A549": {"test_system": "A549"}, "ACHN": {"test_system": "ACHN"}, "CAKI-1": {"test_system": "CAKI-1"}, "CCRF-CEM": {"test_system": "CCRF-CEM"}, "COLO 205": {"test_system": "COLO 205"}, "DLD-1": {"test_system": "DLD-1"}, "DMS-114": {"test_system": "DMS-114"}, "DMS-273": {"test_system": "DMS-273"}, "EKVX": {"test_system": "EKVX"}, "HCC 2998": {"test_system": "HCC 2998"}, "HCT-116": {"test_system": "HCT-116"}, "HCT-15": {"test_system": "HCT-15"}, "HL-60": {"test_system": "HL-60"}, "HOP-18": {"test_system": "HOP-18"}, "HOP-62": {"test_system": "HOP-62"}, "HOP-92": {"test_system": "HOP-92"}, "HT-29": {"test_system": "HT-29"}, "IGROV-1": {"test_system": "IGROV-1"}, "K562": {"test_system": "K562"}, "KM-20L2": {"test_system": "KM-20L2"}, "KM12": {"test_system": "KM12"}, "LOX IMVI": {"test_system": "LOX IMVI"}, "LXFL 529": {"test_system": "LXFL 529"}, "M14": {"test_system": "M14"}, "M19-MEL": {"test_system": "M19-MEL"}, "MOLT-4": {"test_system": "MOLT-4"}, "Malme-3M": {"test_system": "Malme-3M"}, "NCI-H226": {"test_system": "NCI-H226"}, "NCI-H23": {"test_system": "NCI-H23"}, "NCI-H460": {"test_system": "NCI-H460"}, "NCI-H522": {"test_system": "NCI-H522"}, "OVCAR-3": {"test_system": "OVCAR-3"}, "OVCAR-4": {"test_system": "OVCAR-4"}, "OVCAR-5": {"test_system": "OVCAR-5"}, "OVCAR-8": {"test_system": "OVCAR-8"}, "RPMI-8226": {"test_system": "RPMI-8226"}, "RXF 393": {"test_system": "RXF 393"}, "SF-268": {"test_system": "SF-268"}, "SF-295": {"test_system": "SF-295"}, "SF-539": {"test_system": "SF-539"}, "SK-MEL-28": {"test_system": "SK-MEL-28"}, "SK-MEL-2": {"test_system": "SK-MEL-2"}, "SK-MEL-5": {"test_system": "SK-MEL-5"}, "SK-OV-3": {"test_system": "SK-OV-3"}, "SN12C": {"test_system": "SN12C"}, "SNB-19": {"test_system": "SNB-19"}, "SNB-75": {"test_system": "SNB-75"}, "SNB-78": {"test_system": "SNB-78"}, "SR": {"test_system": "SR"}, "SW-620": {"test_system": "SW-620"}, "TK-10": {"test_system": "TK-10"}, "U-251": {"test_system": "U-251"}, "UACC-257": {"test_system": "UACC-257"}, "UACC-62": {"test_system": "UACC-62"}, "UO-31": {"test_system": "UO-31"}, "XF498": {"test_system": "XF498"}},
  "note": "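Cultured in 96-well plates, cells were exposed to test compound for 48 hours across five concentrations. GI50 = concentration required for 50% inhibition of growth.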 Calls of active or inactive are those of the source. Cut-off read from the data, not from the text of the source: active = GI50 up to about 1.1 µM and inactive = higher.",
  "data": [
    {"smiles": "Clc1ccc(-n2nnc(C3=NCCCN3)c2-c2ccccc2)cc1", "values": [
      {"measurement": "GI50", "setting": "786-0", "result": "> 100 µM (inactive)"},
      {"measurement": "GI50", "setting": "A498", "result": "> 100 µM (inactive)"},
      {"measurement": "GI50", "setting": "A549", "result": "> 100 µM (inactive)"},
      {"measurement": "GI50", "setting": "ACHN", "result": "> 100 µM (inactive)"},
      {"measurement": "GI50", "setting": "CAKI-1", "result": "> 100 µM (inactive)"},
      {"measurement": "GI50", "setting": "CCRF-CEM", "result": "> 100 µM (inactive)"},
      {"measurement": "GI50", "setting": "COLO 205", "result": "67.3 µM (inactive)"},
      {"measurement": "GI50", "setting": "DLD-1", "result": "> 100 µM (inactive)"},
      {"measurement": "GI50", "setting": "DMS-114", "result": "> 100 µM (inactive)"},
      {"measurement": "GI50", "setting": "DMS-273", "result": "> 100 µM (inactive)"},
      {"measurement": "GI50", "setting": "EKVX", "result": "> 100 µM (inactive)"},
      {"measurement": "GI50", "setting": "HCC 2998", "result": "> 100 µM (inactive)"},
      {"measurement": "GI50", "setting": "HCT-116", "result": "> 100 µM (inactive)"},
      {"measurement": "GI50", "setting": "HCT-15", "result": "> 100", "unit": "µM"},
      {"measurement": "GI50", "setting": "HL-60", "result": "> 100 µM (inactive)"},
      {"measurement": "GI50", "setting": "HOP-18", "result": "> 100 µM (inactive)"},
      {"measurement": "GI50", "setting": "HOP-62", "result": "> 100 µM (inactive)"},
      {"measurement": "GI50", "setting": "HOP-92", "result": "> 100 µM (inactive)"},
      {"measurement": "GI50", "setting": "HT-29", "result": "> 100 µM (inactive)"},
      {"measurement": "GI50", "setting": "IGROV-1", "result": "> 100 µM (inactive)"},
      {"measurement": "GI50", "setting": "K562", "result": "> 100 µM (inactive)"},
      {"measurement": "GI50", "setting": "KM-20L2", "result": "> 100 µM (inactive)"},
      {"measurement": "GI50", "setting": "KM12", "result": "> 100 µM (inactive)"},
      {"measurement": "GI50", "setting": "LOX IMVI", "result": "> 100 µM (inactive)"},
      {"measurement": "GI50", "setting": "LXFL 529", "result": "> 100 µM (inactive)"},
      {"measurement": "GI50", "setting": "M14", "result": "> 100 µM (inactive)"},
      {"measurement": "GI50", "setting": "M19-MEL", "result": "> 100 µM (inactive)"},
      {"measurement": "GI50", "setting": "MOLT-4", "result": "> 100 µM (inactive)"},
      {"measurement": "GI50", "setting": "Malme-3M", "result": "> 100 µM (inactive)"},
      {"measurement": "GI50", "setting": "NCI-H226", "result": "> 100 µM (inactive)"},
      {"measurement": "GI50", "setting": "NCI-H23", "result": "> 100 µM (inactive)"},
      {"measurement": "GI50", "setting": "NCI-H460", "result": "> 100 µM (inactive)"},
      {"measurement": "GI50", "setting": "NCI-H522", "result": "> 100 µM (inactive)"},
      {"measurement": "GI50", "setting": "OVCAR-3", "result": "> 100 µM (inactive)"},
      {"measurement": "GI50", "setting": "OVCAR-4", "result": "> 100 µM (inactive)"},
      {"measurement": "GI50", "setting": "OVCAR-5", "result": "> 100 µM (inactive)"},
      {"measurement": "GI50", "setting": "OVCAR-8", "result": "> 100 µM (inactive)"},
      {"measurement": "GI50", "setting": "RPMI-8226", "result": "> 100 µM (inactive)"},
      {"measurement": "GI50", "setting": "RXF 393", "result": "> 100 µM (inactive)"},
      {"measurement": "GI50", "setting": "SF-268", "result": "> 100 µM (inactive)"},
      {"measurement": "GI50", "setting": "SF-295", "result": "> 100 µM (inactive)"},
      {"measurement": "GI50", "setting": "SF-539", "result": "> 100 µM (inactive)"},
      {"measurement": "GI50", "setting": "SK-MEL-28", "result": "> 100 µM (inactive)"},
      {"measurement": "GI50", "setting": "SK-MEL-2", "result": "> 100 µM (inactive)"},
      {"measurement": "GI50", "setting": "SK-MEL-5", "result": "75.2 µM (inactive)"},
      {"measurement": "GI50", "setting": "SK-OV-3", "result": "> 100 µM (inactive)"},
      {"measurement": "GI50", "setting": "SN12C", "result": "> 100 µM (inactive)"},
      {"measurement": "GI50", "setting": "SNB-19", "result": "> 100 µM (inactive)"},
      {"measurement": "GI50", "setting": "SNB-75", "result": "> 100 µM (inactive)"},
      {"measurement": "GI50", "setting": "SNB-78", "result": "> 100 µM (inactive)"},
      {"measurement": "GI50", "setting": "SR", "result": "> 100 µM (inactive)"},
      {"measurement": "GI50", "setting": "SW-620", "result": "> 100 µM (inactive)"},
      {"measurement": "GI50", "setting": "TK-10", "result": "> 100 µM (inactive)"},
      {"measurement": "GI50", "setting": "U-251", "result": "> 100 µM (inactive)"},
      {"measurement": "GI50", "setting": "UACC-257", "result": "> 100 µM (inactive)"},
      {"measurement": "GI50", "setting": "UACC-62", "result": "> 100 µM (inactive)"},
      {"measurement": "GI50", "setting": "UO-31", "result": "88.7 µM (inactive)"},
      {"measurement": "GI50", "setting": "XF498", "result": "> 100 µM (inactive)"}
    ]}
  ]
}
